Assay results from patent publication US4552701A, “Glycopeptide antibiotics and process of preparation” (Eli Lilly and Company, priority 1984, dated 1985).
Values after ≈ are worked out from the molar mass of the structure shown.

Columns and labels:
[1] = test system: Streptococcus sp. group D 2041; format: cell-based; settings: agar dilution
Streptococcus pyogenes = assay: experimental bacterial infection in mice, ED50; format: in vivo; settings: subcutaneous, two doses
Experimental: (§1) The formula 1 compounds have also shown in vivo antimicrobial activity against experimental bacterial infections. When two doses of test compound were administered to mice in experimental infections, the activity observed was measured as an ED50 value [effective dose in mg/kg to protect 50% of the test animals: see Warren Wick, et al., J. Bacteriol. 81, 233-235 (1961)].

Staphylococcus aureus = assay: experimental bacterial infection in mice, ED50; format: in vivo; settings: subcutaneous, two doses
Experimental: as §1

Streptococcus pneumoniae = assay: experimental bacterial infection in mice, ED50; format: in vivo; settings: subcutaneous, two doses
Experimental: as §1

[2] = test system: Staphylococcus aureus X400; settings: agar dilution
[3] = test system: Streptococcus faecium ATCC 9790; format: cell-based; settings: agar dilution
Klebsiella pneumonia X68 = format: cell-based; settings: agar dilution
Klebsiella pneumonia KAE = format: cell-based; settings: agar dilution
[4] = test system: Staphylococcus aureus NRRL B313; settings: agar dilution
[5] = test system: Streptococcus pyogenes C203; format: cell-based; settings: agar dilution
[6] = test system: Staphylococcus epidermidis EP11; format: cell-based; settings: agar dilution
[7] = test system: Haemophilus influenzae C.L.; format: cell-based; settings: agar dilution
[8] = test system: Streptococcus pneumoniae Park 1; format: cell-based; settings: agar dilution
Escherichia coli EC14 = format: cell-based; settings: agar dilution
Escherichia coli N10 = format: cell-based; settings: agar dilution
[9] = test system: Staphylococcus aureus V41; settings: agar dilution
Escherichia coli TEM = format: cell-based; settings: agar dilution
[10] = test system: Haemophilus influenzae 76; format: cell-based; settings: agar dilution
Klebsiella pneumonia X26 = format: cell-based; settings: agar dilution
[11] = test system: Staphylococcus epidermidis 222; format: cell-based; settings: agar dilution
[12] = test system: Bacteroides thetaiotaomicron 1438; format: cell-based; settings: agar dilution, read after 24 hrs
[13] = test system: Bacteroides fragilis 1936B; format: cell-based; settings: agar dilution, read after 24 hrs
[14] = test system: Clostridium perfringens 81; format: cell-based; settings: agar dilution, read after 24 hrs
[15] = test system: Peptococcus asaccharolyticus 1302; format: cell-based; settings: agar dilution, read after 24 hrs
[16] = test system: Fusobacterium necrophorum 6054A; format: cell-based; settings: agar dilution, read after 24 hrs
[17] = test system: Eubacterium aerofaciens 1235; format: cell-based; settings: agar dilution, read after 24 hrs
[18] = test system: Propionibacterium acnes 79; format: cell-based; settings: agar dilution, read after 24 hrs
[19] = test system: Peptostreptococcus intermedius 1264; format: cell-based; settings: agar dilution, read after 24 hrs
[20] = test system: Bacteroides melaninogenicus 2736; format: cell-based; settings: agar dilution, read after 24 hrs
[21] = test system: Peptostreptococcus anaerobius 1428; format: cell-based; settings: agar dilution, read after 24 hrs
[22] = test system: Bacteroides fragilis 1877; format: cell-based; settings: agar dilution, read after 24 hrs
[23] = test system: Bacteroides corrodens 1874; format: cell-based; settings: agar dilution, read after 24 hrs
[24] = test system: Fusobacterium symbiosum 1470; format: cell-based; settings: agar dilution, read after 24 hrs
[25] = test system: Bacteroides melaninogenicus 1856/28; format: cell-based; settings: agar dilution, read after 24 hrs
[26] = test system: Bacteroides vulgatis 1211; format: cell-based; settings: agar dilution, read after 24 hrs
Bacteroides fragilis 111 = format: cell-based; settings: agar dilution, read after 24 hrs
[27] = test system: Clostridium difficile 2994; format: cell-based; settings: agar dilution, read after 24 hrs
Experimental: (§2) | read after 24hrs. incubation.

[28] = test system: Clostridium septicum 1128; format: cell-based; settings: agar dilution, read after 24 hrs
Experimental: as §2

Peptococcus prevoti 1281 = settings: agar dilution, read after 24 hrs

| SMILES | MIC [1] [µg/mL] | ED50 (Streptococcus pyogenes) [mg/kg/2] | ED50 (Staphylococcus aureus) [mg/kg/2] | ED50 (Streptococcus pneumoniae) [mg/kg/2] | MIC [2] [µg/mL] | MIC [3] [µg/mL] | MIC (Klebsiella pneumonia X68) [µg/mL] | MIC (Klebsiella pneumonia KAE) [µg/mL] | MIC [4] [µg/mL] | MIC [5] [µg/mL] | MIC [6] [µg/mL] | MIC [7] [µg/mL] | MIC [8] [µg/mL] | MIC (Escherichia coli EC14) [µg/mL] | MIC (Escherichia coli N10) [µg/mL] | MIC [9] [µg/mL] | MIC (Escherichia coli TEM) [µg/mL] | MIC [10] [µg/mL] | MIC (Klebsiella pneumonia X26) [µg/mL] | MIC [11] [µg/mL] | further results |
| --- | --- | --- | --- | --- | --- | --- | --- | --- | --- | --- | --- | --- | --- | --- | --- | --- | --- | --- | --- | --- | --- |
| CC(C)C[C@H](C(=O)N[C@H]1C(=O)N[C@@H](CC(N)=O)C(=O)N[C@H]2C(=O)N[C@H]3C(=O)N[C@H](C(=O)N[C@H](C(=O)[O-])c4cc(O)cc(O)c4-c4cc3ccc4O)[C@H](O)c3ccc(c(Cl)c3)Oc3cc2cc(c3O)Oc2ccc(cc2Cl)[C@H]1O)[N+](C)(C)C [Compound 11, Agluco-M43A] | 4 (≈ 3.41 µM) | 3.63 | 3.06 | 3.06 | 2 (≈ 1.71 µM) | 2 (≈ 1.71 µM) | > 128 | > 128 | 2 (≈ 1.71 µM) | 2 (≈ 1.71 µM) | 2 (≈ 1.71 µM) | 128 (≈ 109 µM) | 1 (≈ 0.853 µM) | > 128 | > 128 | 2 (≈ 1.71 µM) | > 128 | 32 (≈ 27.3 µM) | > 128 | 2 (≈ 1.71 µM) |  |
| CN[C@H](CC(C)C)C(=O)N[C@H]1C(=O)N[C@@H](CC(N)=O)C(=O)N[C@H]2C(=O)N[C@H]3C(=O)N[C@H](C(=O)N[C@H](C(=O)O)c4cc(O)cc(O)c4-c4cc3ccc4O)[C@H](O)c3ccc(c(Cl)c3)Oc3cc2cc(c3O[C@@H]2O[C@H](CO)[C@@H](O)[C@H](O)[C@H]2O)Oc2ccc(cc2Cl)[C@H]1O [Compound 13, Desvancosamine-Vancomycin] | 32 (≈ 24.5 µM) |  |  |  | 8 (≈ 6.13 µM) | 8 (≈ 6.13 µM) | > 128 | > 128 | 8 (≈ 6.13 µM) | 4 (≈ 3.06 µM) | 16 (≈ 12.3 µM) | > 128 | 4 (≈ 3.06 µM) | > 128 | > 128 | 8 (≈ 6.13 µM) | > 128 | 128 (≈ 98 µM) | > 128 | 8 (≈ 6.13 µM) |  |
| CC(C)C[C@@H](N)C(=O)N[C@H]1C(=O)N[C@@H](CC(N)=O)C(=O)N[C@H]2C(=O)N[C@H]3C(=O)N[C@H](C(=O)N[C@H](C(=O)O)c4cc(O)cc(O)c4-c4cc3ccc4O)[C@H](O)c3ccc(c(Cl)c3)Oc3cc2cc(c3O)Oc2ccc(cc2Cl)[C@H]1O [Compound 9, Agluco-A51568A] | 2 (≈ 1.77 µM) | 2.0 | 0.74 | 1.8 | 0.5 (≈ 0.443 µM) | 1 (≈ 0.885 µM) | > 128 | > 128 | 0.5 (≈ 0.443 µM) | 1 (≈ 0.885 µM) | 1 (≈ 0.885 µM) | 128 (≈ 113 µM) | 0.5 (≈ 0.443 µM) | > 128 | > 128 | 0.5 (≈ 0.443 µM) | > 128 | 128 (≈ 113 µM) | > 128 | 1 (≈ 0.885 µM) | MIC [12]: 64 µg/mL (≈ 56.6 µM); MIC [13]: 64 µg/mL (≈ 56.6 µM); MIC [14]: 1 µg/mL (≈ 0.885 µM); MIC [15]: 1 µg/mL (≈ 0.885 µM); MIC [16]: ≥ 0.5 µg/mL; MIC [17]: 1 µg/mL (≈ 0.885 µM); MIC [18]: 1 µg/mL (≈ 0.885 µM); MIC [19]: 1 µg/mL (≈ 0.885 µM); MIC [20]: 4 µg/mL (≈ 3.54 µM); MIC [21]: ≥ 0.5 µg/mL; MIC [22]: 64 µg/mL (≈ 56.6 µM); MIC [23]: 64 µg/mL (≈ 56.6 µM); MIC [24]: 4 µg/mL (≈ 3.54 µM); MIC [25]: > 128 µg/mL; MIC [26]: 1 µg/mL (≈ 0.885 µM); MIC (Bacteroides fragilis 111): 64 µg/mL (≈ 56.6 µM); MIC [27]: 1 µg/mL (≈ 0.885 µM); MIC [28]: 1 µg/mL (≈ 0.885 µM); MIC (Peptococcus prevoti 1281): 1 µg/mL (≈ 0.885 µM) |
